Measured values as given in patent US7393637B2, “Methods for detecting cancer and monitoring cancer progression” (University of Manitoba, priority 2003, dated 2008).

B1: 356delA BNIP3: truncated BNIP3, frame shift in the CD domain by deletion of A at nucleotide 356 (SEQ ID NO:3, protein SEQ ID NO:4) (protein, listed as Homo sapiens)
chain: MSQNGAPGMQEESLQGSWVELHFSNNGNGGSVPASVSIYNGDMEKILLDAQHESGRSSSKSSHCDSPPRSQTPQDTNRASETDTHSIGEKNSSQSEEDDIERRKEVESILKKNSDWIWVGQVGRKIFPPRSSSLNTRSARPPSA

Experiments:
Assay type in all cases: cell-based, human
BNIP3 = test: Antisense experiment: BNIP3 expression in U87 cells under hypoxia (Western blot); details: hypoxia 72 hrs
Description: U251 cells were lysed for total protein or nuclear proteins as previously published (5). The lysates ([…]) were separated by SDS-PAGE and transferred to nitrocellulose membranes. Membranes were blocked in 5% skim milk and western blotted with monoclonal antibodies against BNIP3 (1:1000) (5), pro-caspase 8 antibodies (1:1000, Upstate Biotech.), HDAC1 antibodies (1:1000, Upstate Biotech),) or β-actin (1:50, Sigma). The western blots were visualized with chemiluminescence (NEN-Dupont).
Antisense oligonucleotide (5′-[…]-3′ (SEQ ID NO:13)) (Sigma Genesys, Oakville, ON) and sense oligonucleotide (5′-[…]-3′ (SEQ ID NO:14)) were complimentary to bases −1 to +19 of the human Bnip3 gene. Random sequence oligonucleotide (5′-GCAGTCAGCGACGTCGMGC-3′ (SEQ ID NO:15)) contained the same bases in a scrambled sequence. Oligonucleotides were phosphorothioate-modified to prevent degradation. Oligonucleotides were diluted in Opti-MEM (Gibco BRL), mixed with oligofectamine (Invitrogen) and incubated with U87 cells for 4 hours then hypoxic media was added and cells were further incubated under hypoxia for 72 hours. Cell death was determined via acridine orange staining or cells were lysed and protein extracts were analyzed for BNIP3 expression as described above.

U87 cells = test: Antisense experiment: hypoxia-induced cell death in U87 cells (acridine orange staining); details: hypoxia 72 hours
Description: U251 and U87 cells were plated on 100 mm plates and grown to approximately 80% confluence, then incubated in hypoxic conditions for a time course of 0, 24, 48, 72 and 96 hours. Following incubation under hypoxia, the cells were trypsinized from the plates and centrifuged to collect a cell pellet. Cells were resuspended in 100 μl of media and 4 μl of acridine orange (100 μg/ml) and ethidium bromide (100 μg/ml) were added. A 10 μl aliquot was removed, placed on a microscope slide and a coverslip was applied. Using a fluorescein filter, the percentage of dead cells was determined by counting the number of DNA condensation nuclei. At least 200 cells were counted per sample as previously described (5).
Antisense oligonucleotide (5′-[…]-3′ (SEQ ID NO:13)) (Sigma Genesys, Oakville, ON) and sense oligonucleotide (5′-[…]-3′ (SEQ ID NO:14)) were complimentary to bases −1 to +19 of the human Bnip3 gene. Random sequence oligonucleotide (5′-GCAGTCAGCGACGTCGMGC-3′ (SEQ ID NO:15)) contained the same bases in a scrambled sequence. Oligonucleotides were phosphorothioate-modified to prevent degradation. […] Cell death was determined via acridine orange staining or cells were lysed and protein extracts were analyzed for BNIP3 expression as described above.

[1] = test system: glioblastoma cell lines U87 and U251; test: Cell death after transfection of glioblastoma cell lines (chromatin condensation); details: U87 and U251 cells transfected, normoxia
Description: (§1) Human glioblastoma cell lines U251 and U87 (obtained from Dr. V. W. Yong, University of Calgary and Dr. C. Hao, University of Alberta, respectively) were cultured in Dulbecco's modified essential medium (DMEM), supplemented with 10% fetal bovine serum, 2 mM L-glutamine, 1 mM MEM sodium pyruvate, 0.3% glucose and 100 units/mI penicillin/streptomycin. The cell lines were grown in a humidified incubator in the presence of 5% CO2 at 37° C. Cells were maintained under hypoxic conditions (less than 1% oxygen) at 37° C. within a hypoxic chamber (Forma Scientific) filled with 5% CO2 balanced with N2. Transfection experiments were carried out with the U87 and U251 cell lines. The cells were plated 48 hours prior to transfection to achieve approximately 40% confluence. The U87 cell line was transfected using Geneporter™ transfection reagent (GTS) and the U251 cell line using Effectene™ transfection reagent (Qiagen) as per the manufacturer's instructions.
After transfection of U87 and U251 cell lines with 2 μg of pCDNA3, pCDNA3-BNIP3, pCDNA3-BNIP3ΔTM, or pCDNA3-356delA BNIP3, the cells were incubated for 24 and 48 hours, then trypsinized and centrifuged and then resuspended in 2 ml of media. A 200 μl aliquot was placed in a ThermoShandon cytospin at 1000 RPM for 5 minutes with medium-low acceleration. The slides obtained from the cytospin were immediately fixed with 3.7% formaldelyde in 1×PBS at RT for one hour. Following three washes with 1' PBS (0.1% NP40), slides were incubated with primary BNIP3 antibody (1:700 dilution in […], 1×PBS, 0.1% NP40) for 1 hour at RT. The slides were then washed three times in PBS (0.1% NP40) and incubated with goat anti-rabbit fluorescein isothiocyanate (FITC)-conjugated secondary antibody (Sigma) for 1 hour. […] 200 or more cells were counted per sample to assess DNA condensation. Fluorescence was visualized and captured using an Olympus BX51 fluorescent microscope with a Photometrics Cool Snap CF camera and an Olympus IX70 inverted confocal laser microscope using Fluoview 2.0 software.

U251 cells [2] = test: Determination of mitochondrial membrane potential (TMRM staining) in transfected U251 cells; details: U251 cells co-transfected with GFP
Description: U251 cells were grown in chamber slides and were co-transfected with pEGFP N1 (Clontech) and pCDNA3, pCDNA3-BNIP3, pCDNA3-BNIP3ΔTM, and pCDNA3-356delA BNIP3 using Geneporter™ transfection reagent (GTS) as per the manufacturer's instructions. After 16 h of incubation, the slides were washed twice with 1×Hepes-buffered saline solution (HBSS) and tetramethylrohdamine (TMRM; Molecular Probes) was added to the slides at […] final concentration and incubated in the dark at RT for 10 min. The slides were then viewed on an Olympus IX70 inverted confocal laser microscope using Fluoview 2.0 software.

U251 cells [3] = test: Hypoxia-induced cell death in transfected U251 cells (β-galactosidase viability assay)
Description: as §1
U87 and U251 cells were co-transfected in 100 mm culture plates with 2 μg of pcDNA3, pcDNA3-BNIP3, pcDNA3-BNIP3ΔTM, pcDNA3-356delA BNIP3 plasmid DNA and 0.5 μg of β-galactosidase reporter plasmid DNA. […] The percentage of dead cells was calculated by assessing the number of rounded, condensed, blue-staining cells in the total population of flat, blue-staining cells. At least 200 cells were counted for each experiment.

Molecule | BNIP3 expression (BNIP3) | hypoxia-induced cell death (U87 cells) | induction of cell death [1] | TMRM staining (mitochondrial membrane potential, Δψm) (U251 cells [2]) | cell death (U251 cells [3]; U251 cells transfected with cDNA, hypoxic conditions 72 hours, vector alone 40%, normoxia 10%) | reduction of cell death versus vector alone (U251 cells [3]; U251 cells, hypoxic conditions)
5′-GCGCTCCGTTCTGCGACATG-3′ (SEQ ID NO:13) (listed as DNA, chemistry not given here) [antisense oligonucleotides against BNIP3, antisense oligonucleotide to bases −1 to +19 of the human Bnip3 gene] | effectively blocks BNIP3 expression | inhibited hypoxia-induced cell death | – | – | – | –
235—236insA BNIP3: truncated BNIP3, frame shift in the PEST domain by insertion of A at nucleotide 236 (SEQ ID NO:5, protein SEQ ID NO:6) | – | – | failed to induce cell death | – | – | –
wt BNIP3: wild-type Bcl-2 Nineteen Kilodalton Interacting Protein 3 (SEQ ID NO:2), expressed from transfected cDNA | – | – | inducing cell death | TMRM staining decreased | – | –
B1 | – | – | fails to induce cell death | failed to change TMRM fluorescence | 20% | 50%
